The values below come from patent publication US20070167499A1, “Biaryl linked hydroxamates: preparation and pharmaceutical applications” (A*BIO Pte Ltd., priority 2003, published 2007).

The test system of one experiment is Colo205. As to the kind of experiment: Cell-based proliferation assay for determination of GI50 values, colon cancer cell line. The note with it: Homo sapiens, COLO 205; 96 h treatment, cyquant cell proliferation assay; read-out: Cellular activities GI50, Colo205. As to the method:
(§1) Cell-based Proliferation assay for determination of GI50 values
(§2) Three different cancer cell lines were obtained from ATCC: Human colon cancer cell line (Colo205), human breast cancer cell lines (MDA-MB435), and human lung cancer cell line (NCl-H522). Colo205 cells and NCl-H522 were cultivated in RPMI 1640 containing 2 mM
(§3) L-Glutamine, 5% FBS, 1.0 mM Na Pyruvate. MDA-MB435 cells were cultivated in DMEM containing 2 mM L-Glutamine, 5% FBS. Colo205 cells were seeded in 96-wells plate at 2000 and 5000 cells per well respectively. MDA-MB435 and NCl-H522 cells were seeded in 96-wells plate at 6000 cells per well. The plates were incubated at 37° C., 5% CO2, for 24 h. Cells were treated with compounds at various concentrations for 96 h. Cell growth was then monitored using cyquant cell proliferation assay (Invitrogen Pte Ltd). Dose response curves were plotted to determine GI50 values for the compounds using XL-fit (ID Business Solution, Emeryville, Calif.).

For a further experiment, the target named is T1, HDAC1 enzyme (GST-HDAC1) (Homo sapiens, UniProt Q13547).
T1 construct: Amplification of human HDAC1 and HDAC8 coding region from this cDNA library; made in house; host or cells: SF9 insect cells (baculovirus, pDEST20 vector)
As to the kind of experiment: In vitro HDAC assay for determination of IC50 values (BIOMOL fluorescent-based HDAC activity assay), HDAC1. In kind it is biochemical. As to conditions: 600 nM HDAC1 enzyme, 500 μM Flur de lys generic substrate, room temperature 2 h. The method, then:
Recombinant GST-HDAC1 and GST-HDAC-8 Protein expression and purification
Human cDNA library was prepared using cultured SW620 cells. Amplification of human HDAC1 and HDAC8 coding region from this cDNA library was cloned separately into the baculovirus expression pDEST20 vector and pFASTBAC vector respectively (GATEWAY Cloning Technology, Invitrogen Pte Ltd). The pDEST20-HDAC1 and pFASTBAC-HTGST-HDAC8 constructs were confirmed by DNA sequencing. Recombinant baculovirus was prepared using the Bac-To-Bac method following the manufacturer's instruction (Invitrogen Pte Ltd). Baculovirus titer was determined by plaque assay to be about 10^8 PFU/ml.
Expression of GST-HDAC1 or HTGST-HDAC8 was done by infecting SF9 cells (Invitrogen Pte Ltd) with pDEST20-HDAC1 or pFASTBAC-GST-HDAC8 baculovirus at MOI=1 for 48 h. Soluble cell lysate was incubated with pre-equilibrated Glutathione Sepharose 4B beads (Amersham) at 4° C. for 2 h. The beads were washed with PBS buffer for 3 times. The GST-HDAC1 protein or GST-HDAC8 protein was eluted by elution buffer containing 50 mM Tris, pH8.0, 150 mM NaCl, 1% Triton X-100 and 10 mM or 20 mM reduced Glutathione. The purified GST-HDAC1 protein or purified GST-HDAC8 protein was dialyzed with HDAC storage buffer containing 10 mM Tris, pH7.5, 100 mM NaCl and 3 mM MgCl2. 20% Glycerol was added to purified GST-HDAC1 protein or purified GST-HDAC8 before storage at −80° C.
In vitro HDAC assay for determination of IC50 values
The assay has been carried out in 96 well format and the BIOMOL fluorescent-based HDAC activity assay has been applied. The reaction composed of assay buffer, containing 25 mM Tris pH 7.5, 137 mM NaCl, 2.7 mM KCl, 1 mM MgCl2, 1 mg/ml BSA, tested compounds, 500 nM HDAC8 enzyme or 600 nM HDAC1 enzyme, 200 μM Flur de lys p53 peptide substrate for HDAC8 enzyme or 500 μM Flur de lys generic substrate for HDAC1 enzyme and subsequently was incubated at room temperature for 2 h. Flur de lys Developer was added and the reaction was incubated for 10 min. Briefly, deacetylation of the substrate sensitizes it to the developer, which then generates a fluorophore The fluorophore is excited with 360 nm light and the emitted light (460 nm) is detected on a fluorometric plate reader (Tecan Ultra Microplate detection system, Tecan Group Ltd.).
The analytical software, Prism 3.0® (GraphPad Software Inc) has been used to generate IC50 from a series of data.

Experiment [1] deals with acetylated H3 in Colo205 cells. As to the kind of experiment: Histone H3 acetylation assay (western-blot). The note with it: for Histone 3 acetylation: Colo205 cells, 0.1, 1, 5 and 10 μM, after 24 h. Set-up: key: “Active” means accumulation of acetylated histone was observed when compared with control (without compound). Type of experiment: cell-based, human. The method, then:
Histone H3, H4 and H2A acetylation assay
A hallmark of histone deacetylase (HDAC) inhibition is the increase in the acetylation level of histones. Histone acetylation, including H3, H4 and H2A can be detected by immuno-blotting (western-blot). Colo205 cells, approximately 1.5×10^6 cells/10 cm dish, were seeded in the previously described medium, cultivated for 24 h and subsequently treated with HDAC inhibitory agents at 0.1, 1, 5 and 10 μM final concentration. […] The protein concentration was quantified using BCA method (Sigma Pte Ltd). The protein lysate was separated using 4-12% bis-tris SDS-PAGE gel (Invitrogen Pte Ltd) and was transferred onto PVDF membrane (BioRad Pte Ltd). The membrane was probed separately using primary antibody specific for acetylated H3, acetylated H4 or acetylated H2A (Upstate Pte Ltd). The detection antibody, goat anti rabbit antibody conjugated with horse radish peroxidase (HRP) was used according to the manufacturing instruction (Pierce Pte Ltd). After removing the detection antibody from the membrane, an enhanced chemiluminescent substrate for detection of HRP (Pierce Pte Ltd) was added onto the membrane. After removing the substrate, the membrane was exposed to an X-ray film (Kodak) for 1 sec-20 mins. The X-ray film was developed using the X-ray film processor. The density of each band observed on the developed film could be analysed using UVP Bioimaging software (UVP, Inc, Upland, Calif.). The values were then normalized against the density of actin in the corresponding samples to obtain the expression of the protein.

In a further experiment the test system is MDA-MB435. As to the kind of experiment: Cell-based proliferation assay for determination of GI50 values, breast cancer cell line. As to conditions: Homo sapiens, MDA-MB-435; 96 h treatment, cyquant cell proliferation assay; read-out: Cellular activities GI50, MDA-MB435. As to the method: as §1, §2, §3

Where only a bound is given, the exact number is not on record here.

T1 sequence (Q13547 whole entry): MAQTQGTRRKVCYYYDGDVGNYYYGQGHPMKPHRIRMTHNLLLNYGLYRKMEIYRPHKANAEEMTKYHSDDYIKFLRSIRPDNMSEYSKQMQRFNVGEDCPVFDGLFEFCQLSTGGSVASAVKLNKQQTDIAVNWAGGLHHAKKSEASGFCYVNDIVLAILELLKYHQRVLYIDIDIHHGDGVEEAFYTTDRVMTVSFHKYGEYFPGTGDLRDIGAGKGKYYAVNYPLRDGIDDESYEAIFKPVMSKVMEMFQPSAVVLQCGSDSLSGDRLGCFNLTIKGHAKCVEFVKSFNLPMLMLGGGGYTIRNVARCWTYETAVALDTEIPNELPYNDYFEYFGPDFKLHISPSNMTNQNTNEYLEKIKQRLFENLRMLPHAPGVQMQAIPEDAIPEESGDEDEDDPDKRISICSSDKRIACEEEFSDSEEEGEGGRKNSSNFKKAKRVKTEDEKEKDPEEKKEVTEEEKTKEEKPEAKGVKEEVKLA

`O=C(Cc1ccc(-c2csc(NC(=O)Cc3ccccc3)n2)s1)NO` [Example 1, N-Hydroxy-2-[5-(2-phenylacetylamino-thiazol-4-yl)-thiophen-2-yl]-acetamide]: the GI50 (as a rule, the concentration giving 50% growth inhibition) in the experiment with Colo205 came out at 12100 nM. In addition, the IC50 (in general, the concentration that inhibits the measured activity by half) at HDAC1 enzyme (GST-HDAC1) was over 100000 nM. In addition, the “Histone 3 acetylation (after 48 hrs)” value in experiment [1] (Colo205 cells, after 48 hrs) was “Active (after 48 hrs)”.

Turning to `Nc1nc(-c2ccc(/C=C/C(=O)NO)cc2)cs1` [Example 23, 3-[4-(2-Amino-thiazol-4-yl)-phenyl]-N-hydroxy-acrylamide], the GI50 was found to be 4460 nM in the experiment with MDA-MB435 and 7720 nM in the experiment on Colo205. This compound showed an IC50 on HDAC1 enzyme (GST-HDAC1) of 510 nM. Besides, the “Histone 3 acetylation” value in experiment [1] is on record as “Active”.

As to `O=C(NO)c1ccc(-c2ccc(CNCCc3ccccc3)cc2)s1` [Example 26, 5-[4-(Phenethylamino-methyl)-phenyl]-thiophene-2-carboxylic acid hydroxyamide], the GI50 was 2660 nM with MDA-MB435 and 1860 nM in the experiment with Colo205. Further, the IC50 against HDAC1 enzyme (GST-HDAC1) is 66 nM. Also, in experiment [1], the “Histone 3 acetylation” value is “Active”.

As for `O=C(NO)c1ccc(-c2ccc(CNCCc3ccccn3)cc2)s1` [Example 27], the GI50 with MDA-MB435 stood at 1490 nM; in the experiment with Colo205 it was 2390 nM. Also, the IC50 on HDAC1 enzyme (GST-HDAC1) turned out to be 200 nM. The “Histone 3 acetylation” value in experiment [1] is listed as “Active”.
